Measured values reported in patent publication EP4800013A1, “PARG INHIBITOR” (Shanghai Qilu Pharmaceutical Research and Development …, priority 2023, dated 2025).
Where two headings read alike, the source gives them in different places.

Legend:
[1] = Pharmacokinetic evaluation in BALB/c nude mice (PO); format: in vivo; details: mouse, in vivo, 30 mg/kg
Experimental: Using mice as test animals, the compounds of the present disclosure were administered via intravenous bolus and oral injection. Plasma samples were collected at specific time points. Compound concentrations in plasma were determined by LC-MS/MS, and PK parameters were calculated to characterize the pharmacokinetic behavior of the compounds of the present disclosure in plasma.
BALB/c nude mice, female, supplied by Jiangsu GemPharmatech Co., Ltd.
Dosing regimen for BALB/c nude mice: The PO (oral) experimental group consisted of 3 mice, which were administered at a dose of 30 mg/kg and a volume of 10 mL/kg. The dosing vehicle was 5% (v/v) DMSO/10% (v/v) Solutol/85% (v/v) saline.
Following administration, 0.025 mL of blood was collected via venipuncture at the following time points: 0.0833 (IV), 0.25, 0.5, 1, 2, 4, 8, and 24 hours. Blood samples were collected into EDTA-K2 tubes and centrifuged at 4°C and 2000 g for 10 minutes to separate plasma, which was stored at -80°C.
Mouse plasma processing: • 1) 15 µL of plasma was mixed with 200 µL of acetonitrile for protein precipitation. The mixture was vortexed and centrifuged for 15 minutes. • 2) The supernatant after processing was diluted with water and analyzed by LC/MS/MS to determine the concentration of the test compound.
Pharmacokinetic parameters were calculated using WinNonlin 6.1. Specifically, Cmax represents maximum plasma concentration, CL represents clearance, Vss represents volume of distribution at steady state, T1/2 represents terminal elimination half-life, MRTInf represents mean residence time, AUC represents area under the plasma concentration-time curve, and F represents bioavailability. Table 18: Pharmacokinetic parameters of the compounds of the present disclosure in CD-1 mice

[2] = target: T1, PARG (Homo sapiens, UniProt Q86W56); experiment: Enzymatic inhibitory activity against PARG, HTRF assay; format: biochemical
T1 construct: made in house
Summary of the method: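 Purified PARG pre-incubated with compounds (top 10 µM, 3- to 5-fold dilutions, duplicates) 15 min at room temperature, then PARylated PARP1 substrate added for 60 min in Tris pH 7.4 buffer with DTT, EDTA/EGTA, KCl. HTRF (His-Tb/SA-XL665) read-out; IC50 by four-parameter logistic fit, normalised to DMSO and control-inhibitor wells.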

[3] = system: KURAMOCHI cells; experiment: Inhibition of proliferation of KURAMOCHI cells (CellTiter-Glo, intracellular ATP); format: cell-based; details: 168 h, incubated for 7 days, read-out: IC50 against KURAMOCHI cells
Summary of the method: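 KURAMOCHI cells seeded at 4000/well, incubated overnight, then treated with 9-point 1:4 compound series from 10 µM (0.5% DMSO) for 7 days at 37°C, 5% CO2. Viability read by CellTiter-Glo luminescence; inhibition normalised to medium-only (100%) and DMSO (0%) controls, IC50 from variable-slope four-parameter fit.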

[4] = HTRF, PARylated PARP1 protein as substrate, 60 minutes at room temperature, read-out: IC50 against PARG enzyme

T1 sequence (Q86W56 whole entry): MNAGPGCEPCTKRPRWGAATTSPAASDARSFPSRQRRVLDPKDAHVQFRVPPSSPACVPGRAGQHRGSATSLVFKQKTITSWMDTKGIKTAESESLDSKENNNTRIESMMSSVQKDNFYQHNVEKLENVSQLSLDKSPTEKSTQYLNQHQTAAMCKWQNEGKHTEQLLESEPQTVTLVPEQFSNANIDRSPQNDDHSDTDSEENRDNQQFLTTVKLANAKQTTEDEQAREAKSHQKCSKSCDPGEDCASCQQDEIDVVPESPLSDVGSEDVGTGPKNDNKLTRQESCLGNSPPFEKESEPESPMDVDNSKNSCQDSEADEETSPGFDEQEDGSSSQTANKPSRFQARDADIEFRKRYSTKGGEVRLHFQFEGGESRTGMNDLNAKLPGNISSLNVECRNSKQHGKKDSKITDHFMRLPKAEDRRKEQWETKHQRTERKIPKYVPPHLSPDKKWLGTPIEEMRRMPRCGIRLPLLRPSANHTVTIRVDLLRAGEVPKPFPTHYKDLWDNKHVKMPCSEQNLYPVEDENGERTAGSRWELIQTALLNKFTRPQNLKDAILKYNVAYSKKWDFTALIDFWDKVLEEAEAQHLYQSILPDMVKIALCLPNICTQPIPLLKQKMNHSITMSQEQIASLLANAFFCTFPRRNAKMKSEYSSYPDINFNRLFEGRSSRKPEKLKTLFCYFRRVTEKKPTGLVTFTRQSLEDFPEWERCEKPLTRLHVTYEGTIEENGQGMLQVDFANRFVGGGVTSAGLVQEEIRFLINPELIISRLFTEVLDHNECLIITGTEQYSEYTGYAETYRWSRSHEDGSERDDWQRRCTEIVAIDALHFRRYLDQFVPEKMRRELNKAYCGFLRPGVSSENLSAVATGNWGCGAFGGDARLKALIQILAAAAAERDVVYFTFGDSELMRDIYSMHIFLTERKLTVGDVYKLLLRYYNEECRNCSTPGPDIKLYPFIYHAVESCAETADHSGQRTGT

| Compound | IC50 [2, 4] [nM] | IC50 [3] [nM] | other results |
| --- | --- | --- | --- |
| C[C@H]1CN(c2cc(S(=O)(=O)NC3(C)CC3)cn3c(-c4nnc(C(F)F)s4)c([C@@H]4CCCO4)nc23)C[C@H](C)N1 [Compound 080B2] | 0.4 | 0.6 | AUC [1]: 8.35 µM·h; Cmax [1]: 1870 nM; MRT inf [1]: 3.27 h; half-life [1]: 2.45 h |
| CC(C)C(=O)N1CCN(c2cc(S(=O)(=O)NC3(C#N)CC3)cc3c2n(C)c(=O)n3-c2nnc(C(F)F)s2)CC1 [Compound A014] | 12.3 | 37 |  |
| CC(C)n1c(=O)n(-c2nnc(C(F)F)s2)c2cc(S(=O)(=O)NC3(C)CC3)cc(N3CCN(C(=O)N(C)C)CC3)c21 [Compound A018] | 34.1 | 7 |  |
| CC(C)C(=O)N1CCN(c2cc(S(=O)(=O)NC3(C)CC3)cc3c2n(C(C)C)c(=O)n3-c2nnc(C(F)F)s2)CC1 [Compound A019] | 18.1 | 16 |  |
| CC(C)S(=O)(=O)N1CCN(c2cc(S(=O)(=O)NC3(C)CC3)cc3c2n(C)c(=O)n3-c2nnc(C(F)F)s2)CC1 [Compound A023] | 1.5 | 4 |  |
| Cn1c(=O)n(-c2nnc(C(F)F)s2)c2cc(S(=O)(=O)NC3(C)CC3)cc(N3CCN(C(=O)N4CCCC4)CC3)c21 [Compound A027] | 3.8 | 5 |  |
| COC(=O)N1CCN(c2cc(S(=O)(=O)NC3(C)CC3)cc3c2n(C)c(=O)n3-c2nnc(C(F)F)s2)CC1 [Compound A028] | 19 | 48 |  |
| Cn1c(=O)n(-c2nnc(C(F)F)s2)c2cc(S(=O)(=O)NC3(C)CC3)cc(N3CCN(C(=O)C(C)(C)F)CC3)c21 [Compound A029] | 3 | 8 |  |
| Cn1c(=O)n(-c2nnc(C(F)F)s2)c2cc(S(=O)(=O)NC3(C)CC3)cc(N3CCN(C(=O)C(C)(C)O)CC3)c21 [Compound A030] | 18.2 | 10 |  |
| Cn1c(=O)n(-c2nnc(C(F)F)s2)c2cc(S(=O)(=O)NC3(CF)CC3)cc(N3CCNCC3)c21 [Compound A031] | 35.2 | 63 |  |
| CN(C)C(=O)N1CCN(c2cc(S(=O)(=O)NC3(CF)CC3)cc3c2n(C)c(=O)n3-c2nnc(C(F)F)s2)CC1 [Compound A032] | 2.4 | 5 |  |
| CC(C)C(=O)N1CCN(c2cc(S(=O)(=O)NC3(CF)CC3)cc3c2n(C)c(=O)n3-c2nnc(C(F)F)s2)CC1 [Compound A033] | 4 | 9 |  |
| CN(C)C(=O)N1CCN(c2cc(S(=O)(=O)NC3(C)COC3)cc3c2n(C)c(=O)n3-c2nnc(C(F)F)s2)CC1 [Compound A036] | 6.8 | 12 |  |
| CC(C)C(=O)N1CCN(c2cc(S(=O)(=O)NC3(C)COC3)cc3c2n(C)c(=O)n3-c2nnc(C(F)F)s2)CC1 [Compound A037] | 6.8 | 14 |  |
| CN(C)C(=O)N1CC=C(c2cc(S(=O)(=O)NC3(C)CC3)cc3c2n(C)c(=O)n3-c2nnc(C(F)F)s2)CC1 [Compound A038] | 5.2 | 7 |  |
| CN(C)C(=O)N1CCC(c2cc(S(=O)(=O)NC3(C)CC3)cc3c2n(C)c(=O)n3-c2nnc(C(F)F)s2)CC1 [Compound A039] | 3.5 | 7 |  |
| Cn1ccnc1N1CCN(c2cc(S(=O)(=O)NC3(C)CC3)cc3c2n(C)c(=O)n3-c2nnc(C(F)F)s2)CC1 [Compound A040] | 5 | 9 |  |
| C=CCn1c(=O)n(-c2nnc(C(F)F)s2)c2cc(S(=O)(=O)NC3(C#N)CC3)cc(N3CCN(C(=O)N(C)C)CC3)c21 [Compound A041] | 4.4 | 11 |  |
| [2H]C([2H])([2H])N(C(=O)N1CCN(c2cc(S(=O)(=O)NC3(C#N)CC3)cc3c2n(CC=C)c(=O)n3-c2nnc(C(F)F)s2)CC1)C([2H])([2H])[2H] [Compound A042] | 5.1 | 6 |  |
| CCn1c(=O)n(-c2nnc(C(F)F)s2)c2cc(S(=O)(=O)NC3(C#N)CC3)cc(N3CCN(C(=O)N(C)C)CC3)c21 [Compound A043] | 8 | 11 |  |
| CC(C)n1c(=O)n(-c2nnc(C(F)F)s2)c2cc(S(=O)(=O)NC3(C#N)CC3)cc(N3CCN(C(=O)N(C)C)CC3)c21 [Compound A045] | 13.9 | 16 |  |

| Compound | IC50 [2, 4] [nM] | IC50 [3] [nM] | other results |
| --- | --- | --- | --- |
| CC(C)n1c(=O)n(-c2nnc(C(F)F)s2)c2cc(S(=O)(=O)NC3(C#N)CC3)cc(N3CCN(S(=O)(=O)C(C)C)CC3)c21 [Compound A046] | 5.5 | 8 |  |
| CC(C)n1c(=O)n(-c2nnc(C(F)F)s2)c2cc(S(=O)(=O)NC3(C#N)CC3)cc(N3CCN(C(=O)N4CCCC4)CC3)c21 [Compound A047] |  | 13 | IC50 [2]: 15 nM |
| CC(C)n1c(=O)n(-c2nnc(C(F)F)s2)c2cc(S(=O)(=O)NC3(C#N)CC3)cc(N3CCN(C(=O)C(C)(C)F)CC3)c21 [Compound A048] | 34.8 | 27 |  |
| CC(C)n1c(=O)n(-c2nnc(C(F)F)s2)c2cc(S(=O)(=O)NC3(C#N)CC3)cc(N3CCN(C(=O)C(C)(C)O)CC3)c21 [Compound A049] | 15.7 | 50 |  |
| CC(C)C(=O)N1CCN(c2cc(S(=O)(=O)NC3(C#N)CC3)cc3c2n(C(C)C)c(=O)n3-c2nnc(C(F)F)s2)CC1 [Compound A050] | 22.5 | 20 |  |
| C=CCn1c(=O)n(-c2nnc(C(F)F)s2)c2cc(S(=O)(=O)NC3(C#N)CC3)cc(N3CCN(C(=O)C(C)C)CC3)c21 [Compound A051] | 7.5 | 12 |  |
| C=CCn1c(=O)n(-c2nnc(C(F)F)s2)c2cc(S(=O)(=O)NC3(C#N)CC3)cc(N3CCN(S(=O)(=O)C(C)C)CC3)c21 [Compound A052] | 1.6 | 2 |  |
| C=CCn1c(=O)n(-c2nnc(C(F)F)s2)c2cc(S(=O)(=O)NC3(C#N)CC3)cc(N3CCN(C(=O)C(C)(C)O)CC3)c21 [Compound A053] | 6.7 | 37 |  |
| CC1(NS(=O)(=O)c2cc(N3CCNCC3)c3ncn(-c4nnc(C(F)F)s4)c3c2)CC1 [Compound B001] | 44.7 | 53 |  |
| CC(C)C(=O)N1CCN(c2cc(S(=O)(=O)NC3(C)CC3)cc3c2ncn3-c2nnc(C(F)F)s2)CC1 [Compound B002] | 11.6 | 16 |  |
| CN(C)C(=O)N1CCN(c2cc(S(=O)(=O)NC3(C)CC3)cc3c2ncn3-c2nnc(C(F)F)s2)CC1 [Compound B003] | 10.2 | 16 |  |
| CC(C)C(=O)N1CCN(c2cc(S(=O)(=O)NC3(C#N)CC3)cc3c2ncn3-c2nnc(C(F)F)s2)CC1 [Compound B010] | 31.4 | 59 |  |
| CN(C)C(=O)N1CCN(c2cc(S(=O)(=O)NC3(C#N)CC3)cc3c2ncn3-c2nnc(C(F)F)s2)CC1 [Compound B011] | 9.9 | 32 |  |
| N#CC1(NS(=O)(=O)c2cc(N3CCN(C(=O)N4CCCC4)CC3)c3ncn(-c4nnc(C(F)F)s4)c3c2)CC1 [Compound B013] | 21.3 | 53 |  |
| CC(C)(F)C(=O)N1CCN(c2cc(S(=O)(=O)NC3(C#N)CC3)cc3c2ncn3-c2nnc(C(F)F)s2)CC1 [Compound B014] | 31.4 | 43 |  |
| C[C@H]1CN(c2cc(S(=O)(=O)NC3(C#N)CC3)cc3c2ncn3-c2nnc(C(F)F)s2)C[C@H](C)N1 [Compound B016] | 21.2 | 74 |  |
| C[C@H]1CN(c2cc(S(=O)(=O)NC3(C#N)CC3)cc3c2ncn3-c2nnc(C(F)F)s2)C[C@H](C)N1C(=O)N(C)C [Compound B017] | 31.5 | 20 |  |
| COc1nc2c(N3CCN(C(=O)N(C)C)CC3)cc(S(=O)(=O)NC3(C#N)CC3)cc2n1-c1nnc(C(F)F)s1 [Compound B019] | 6.3 | 19 |  |
| COc1nc2c(N3CCN(C(=O)C(C)C)CC3)cc(S(=O)(=O)NC3(C#N)CC3)cc2n1-c1nnc(C(F)F)s1 [Compound B020] | 19.8 | 59 |  |
| Cc1nc2c(N3CCN(C(=O)N(C)C)CC3)cc(S(=O)(=O)NC3(C#N)CC3)cc2n1-c1nnc(C(F)F)s1 [Compound B021] | 25.1 | 51 |  |
| CN(C)C(=O)N1CCN(c2cc(S(=O)(=O)NC3(C)CC3)cc3c2nnn3-c2nnc(C(F)F)s2)CC1 [Compound C002] | 48.2 | 25 |  |
